Ten compounds from PubChem BioAssay AID248 (DTP/NCI, 2004) can be followed below.

Structures are written as SMILES. “And” between values parts separate entries of the source, which are not always exact repeats. Equal entries are not always repeated. Inconclusive results and toxic doses are left out.

For the assay, the system named is L1210 leukemia ip in BDF1 mice, survival T/C. Put plainly: NCI In Vivo Anticancer Drug Screen. Data for tumor model L1210 Leukemia (intraperitoneal) in B6D2F1 (BDF1) mice. Particulars: endpoint: mean survival time, higher = longer survival. The method in brief: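 Transplantable tumor model; survival measured in treated vs vehicle control mice. Value = treated/control.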

The mark [1] stands for this setting: dose: 100.0 mg/kg/injection, schedule: Q01DX001 (ip), vehicle: saline.
The mark [2] stands for this setting: dose: 200.0 mg/kg/injection, schedule: Q01DX001 (ip), vehicle: saline.
Setting [3] is: dose: 100.0 mg/kg/injection, schedule: Q01DX001 (ip), vehicle: Klucel (hydroxypropylcellulose) (HPC).
[4] abbreviates: dose: 200.0 mg/kg/injection, schedule: Q01DX001 (ip), vehicle: Klucel (hydroxypropylcellulose) (HPC).

For `Cc1c(C(=O)c2ccc3c(c2)OCO3)ccc2c1OCO2`, the T/C was 100 % of control (dose: 100.0 mg/kg/injection, schedule: Q01DX001 (ip), vehicle: carboxymethylcellulose (CMC)); 100 % of control (dose: 200.0 mg/kg/injection, schedule: Q01DX001 (ip), vehicle: carboxymethylcellulose (CMC)); 96 % of control (dose: 400.0 mg/kg/injection, schedule: Q01DX001 (ip), vehicle: carboxymethylcellulose (CMC)).
For `CC(C)(O)CCCC1CCC2C3CCC4CCCCC4(C)C3CCC2(C)C1O` (configuration not stated), the T/C was 86 % of control (dose: 100.0 mg/kg/injection, schedule: Q04DX002 (ip), vehicle: DMSO); 96 % of control (dose: 200.0 mg/kg/injection, schedule: Q04DX002 (ip), vehicle: DMSO); 92 % of control (dose: 400.0 mg/kg/injection, schedule: Q04DX002 (ip), vehicle: DMSO).
Consider `COC(=O)C(NC(=O)C(C)NC(=O)c1cnc2ccccc2n1)C(C)C` (configuration not stated), for which the T/C is 91 % of control under setting [1] and 98 % of control under setting [2].
`OCCOCC(F)(F)F`: the T/C is, setting by setting: under setting [1], 97 % of control; under setting [2], 100 % of control; (dose: 400.0 mg/kg/injection, schedule: Q01DX001 (ip), vehicle: saline) 105 % of control; (dose: 400.0 mg/kg/injection, schedule: Q01DX015 (ip), vehicle: saline) 96 % of control; (dose: 800.0 mg/kg/injection, schedule: Q01DX001 (ip), vehicle: saline) 105 % of control; (dose: 800.0 mg/kg/injection, schedule: Q01DX015 (ip), vehicle: saline) 101 % of control. Besides, the T/C (dose: 1600.0 mg/kg/injection, schedule: Q01DX001 (ip), vehicle: saline) was 108 % of control.
As to `CN(Cc1cnc2nc(N)nc(N)c2n1)c1ccc(C(=O)NC(CCC(=O)NCC(=O)O)C(=O)O)cc1` (configuration not stated), the T/C (dose: 5.0 mg/kg/injection, schedule: Q01DX009 (ip), vehicle: sodium bicarbonate) is 174 % of control and the T/C (dose: 10.0 mg/kg/injection, schedule: Q01DX009 (ip), vehicle: sodium bicarbonate) is 161 % of control.
For the compound `Cc1ccc(C)c(CNc2cc(=O)[nH]c(=O)[nH]2)c1`, the T/C under setting [3] is 97 % of control; the T/C under setting [4] was 101 % of control; the T/C (dose: 400.0 mg/kg/injection, schedule: Q01DX001 (ip), vehicle: Klucel (hydroxypropylcellulose) (HPC)) is 97 % of control.
For `CC1CN=C(c2cccc(NC(=O)Nc3ccc(NC(=O)Nc4cccc(C5=NCC(C)N5)c4)cc3)c2)N1` (configuration not stated), the T/C is, setting by setting: (dose: 4.5 mg/kg/injection, schedule: Q01DX Z (ip), vehicle: carboxymethylcellulose (CMC)) 118 % of control; (dose: 36.0 mg/kg/injection, schedule: Q01DX Z (ip), vehicle: carboxymethylcellulose (CMC)) 202 % of control and 217 % of control; (dose: 45.0 mg/kg/injection, schedule: Q01DX Z (ip), vehicle: carboxymethylcellulose (CMC)) 153 % of control; (dose: 62.0 mg/kg/injection, schedule: Q01DX Z (oral), vehicle: carboxymethylcellulose (CMC)) 113 % of control; (dose: 63.0 mg/kg/injection, schedule: Q01DX Z (ip), vehicle: carboxymethylcellulose (CMC)) 112 % of control; (dose: 72.0 mg/kg/injection, schedule: Q01DX Z (ip), vehicle: carboxymethylcellulose (CMC)) 101 % of control and 111 % of control. Also, the T/C reads like this: (dose: 125.0 mg/kg/injection, schedule: Q01DX Z (oral), vehicle: carboxymethylcellulose (CMC)) 113 % of control; (dose: 250.0 mg/kg/injection, schedule: Q01DX Z (oral), vehicle: carboxymethylcellulose (CMC)) 115 % of control; (dose: 500.0 mg/kg/injection, schedule: Q01DX Z (oral), vehicle: carboxymethylcellulose (CMC)) 109 % of control.
As for `CC1(C)N=C(N)N=C(N)N1c1cccc(Cc2ccccc2)c1`, the T/C is 92 % of control (dose: 25.0 mg/kg/injection, schedule: Q01DX001 (ip), vehicle: saline with Tween-80) and 106 % of control (dose: 50.0 mg/kg/injection, schedule: Q01DX001 (ip), vehicle: saline with Tween-80).
Take `O=C1c2ccccc2C(=O)N1CCCO`: the T/C (dose: 50.0 mg/kg/injection, schedule: Q01DX001 (ip), vehicle: Klucel (hydroxypropylcellulose) (HPC)) was 96 % of control; the T/C under setting [3] was 100 % of control; the T/C under setting [4] is 102 % of control.
Take `O=[N+]([O-])c1ccc(C=Nc2cccc3ccccc23)s1`: the T/C by setting is: (dose: 100.0 mg/kg/injection, schedule: Q04DX003 (ip), vehicle: Klucel (hydroxypropylcellulose) (HPC)) 95 % of control; (dose: 200.0 mg/kg/injection, schedule: Q04DX003 (ip), vehicle: Klucel (hydroxypropylcellulose) (HPC)) 95 % of control; (dose: 400.0 mg/kg/injection, schedule: Q04DX003 (ip), vehicle: Klucel (hydroxypropylcellulose) (HPC)) 92 % of control.
